From patent publication US9265253B2, “Use of macrocyclic picolinamides as fungicides” (DOW AGROSCIENCES LLC, priority 2013, dated 2016)
Where two headings read alike, the source gives them in different places.

What was measured:
[1] = test system: Puccinia triticina; Synonym: Puccinia recondite f. Sp. Tritici; assay: Wheat Brown Rust (PUCCRT) disease control; assay type: in vivo; conditions: Puccinia triticina, topical
Procedure: (§1) Technical grades of materials were dissolved in acetone, which were then mixed with nine volumes of water containing 110 ppm Triton X-100. The fungicide solutions were applied onto wheat seedlings using an automated booth sprayer to run-off. All sprayed plants were allowed to air dry prior to further handling. All fungicides were evaluated using the aforementioned method for their activity vs. all target diseases. Wheat leaf blotch and brown rust activity were also evaluated using track spray applications, in which case the fungicides were formulated as EC formulations, containing 0.1% Trycol 5941 in the spray solutions. Wheat plants (variety Yuma) were grown from seed in a greenhouse in 50% mineral soil/50% soil-less Metro mix until the first leaf was fully emerged, with 7-10 seedlings per pot. These plants were inoculated with an aqueous spore suspension of Septoria tritici either prior to or after fungicide treatments. After inoculation the plants were kept in 100% relative humidity (one day in a dark dew chamber followed by two to three days in a lighted dew chamber at 20° C.) to permit spores to germinate and infect the leaf. The plants were then transferred to a greenhouse set at 20° C. for disease to develop. When disease symptoms were fully expressed on the 1st leaves of untreated plants, infection levels were assessed on a scale of 0 to 100 percent disease severity. Percent disease control was calculated using the ratio of disease severity on treated plants relative to untreated plants. Wheat plants (variety Yuma) were grown from seed in a greenhouse in 50% mineral soil/50% soil-less Metro mix until the first leaf was fully emerged, with 7-10 seedlings per pot. These plants were inoculated with an aqueous spore suspension of Puccinia triticina either prior to or after fungicide treatments. After inoculation the plants were kept in a dark dew room at 22° C. with 100% relative humidity overnight to permit spores to germinate and infect the leaf. The plants were then transferred to a greenhouse set at 24° C. for disease to develop. Fungicide formulation, application and disease assessment followed the procedures as described in the Example A.

[2] = test system: Mycosphaerella graminicola; Anamorph: Septoria tritici; assay: Leaf Blotch of Wheat (SEPTTR) disease control; assay type: in vivo; conditions: Zymoseptoria tritici
Procedure: as §1, with “plants.” for “plants. Wheat plants (variety Yuma) were grown from seed in a greenhouse in 50% mineral soil/50% soil-less Metro mix until the first leaf was fully emerged, with 7-10 seedlings per pot. These plants were inoculated with an aqueous spore suspension of Puccinia triticina either prior to or after fungicide treatments. After inoculation the plants were kept in a dark dew room at 22° C. with 100% relative humidity overnight to permit spores to germinate and infect the leaf. The plants were then transferred to a greenhouse set at 24° C. for disease to develop. Fungicide formulation, application and disease assessment followed the procedures as described in the Example A.”

[3] = 24 h, Wheat Brown Rust, 1 Day Protectant, rate 100 ppm (high volume application), read-out: Disease control PUCCRT 1 DP
[4] = 24 h, Wheat Brown Rust, 1 Day Protectant, rate 121.5 g/H (low volume application), read-out: Disease control PUCCRT 1 DP
[5] = 72 h, Wheat Brown Rust, 3 Day Curative, rate 100 ppm (high volume application), read-out: Disease control PUCCRT 3 DC
[6] = 72 h, Wheat Brown Rust, 3 Day Curative, rate 121.5 g/H (low volume application), read-out: Disease control PUCCRT 3 DC
[7] = 24 h, Wheat Leaf Blotch, 1 Day Protectant, rate 100 ppm (high volume application), read-out: Disease control SEPTTR 1 DP
[8] = 24 h, Wheat Leaf Blotch, 1 Day Protectant, rate 121.5 g/H (low volume application), read-out: Disease control SEPTTR 1 DP
[9] = 72 h, Wheat Leaf Blotch, 3 Day Curative, rate 100 ppm (high volume application), read-out: Disease control SEPTTR 3 DC
[10] = 72 h, Wheat Leaf Blotch, 3 Day Curative, rate 121.5 g/H (low volume application), read-out: Disease control SEPTTR 3 DC
[11] = 24 h, 1 Day Protectant, rate 100 ppm, read-out: PUCCRT 1 DP disease control
[12] = 24 h, 1 Day Protectant, rate 121.5 g/H, read-out: PUCCRT 1 DP disease control
[13] = 72 h, 3 Day Curative, rate 100 ppm, read-out: PUCCRT 3 DC disease control
[14] = 72 h, 3 Day Curative, rate 121.5 g/H, read-out: PUCCRT 3 DC disease control
[15] = 24 h, 1 Day Protectant, rate 100 ppm, read-out: SEPTTR 1 DP disease control
[16] = 24 h, 1 Day Protectant, rate 121.5 g/H, read-out: SEPTTR 1 DP disease control
[17] = 72 h, 3 Day Curative, rate 100 ppm, read-out: SEPTTR 3 DC disease control
[18] = 72 h, 3 Day Curative, rate 121.5 g/H, read-out: SEPTTR 3 DC disease control

SMILES	pest or weed control at 100 ppm [1, 3] [%]	pest or weed control at 121.5 g/ha [1, 4] [%]	pest or weed control at 100 ppm [1, 5] [%]	pest or weed control at 121.5 g/ha [1, 6] [%]	pest or weed control at 100 ppm [2, 7] [%]	pest or weed control at 121.5 g/ha [2, 8] [%]	pest or weed control at 100 ppm [2, 9] [%]	pest or weed control at 121.5 g/ha [2, 10] [%]	pest or weed control at 100 ppm [1, 11] [%]	pest or weed control at 121.5 g/ha [1, 12] [%]	pest or weed control at 100 ppm [1, 13] [%]	pest or weed control at 121.5 g/ha [1, 14] [%]	pest or weed control at 100 ppm [2, 15] [%]	pest or weed control at 121.5 g/ha [2, 16] [%]	pest or weed control at 100 ppm [2, 17] [%]	pest or weed control at 121.5 g/ha [2, 18] [%]
COCCC(=O)Oc1c(OC)ccnc1C(=O)N[C@H]1CCC[C@H](Cc2ccc(OC)cc2)[C@@H](OCC2CC2)[C@H](C)OC1=O [Compound F195, 2-(((3S,7R,8R,9S)-8-(cyclopropylmethoxy)-7-(4-methoxybenzyl)-9-methyl-2-oxooxonan-3-yl)carbamoyl)-4-methoxypyridin-3-yl 3-methoxypropanoate]	80 to 100	80 to 100	80 to 100	0 to 80	80 to 100	80 to 100	80 to 100	80 to 100								
COc1ccnc(C(=O)N[C@H]2CCC[C@H](CCC(C)C)[C@@H](Oc3ccccc3)[C@H](C)OC2=O)c1OCOC(C)=O [Compound F89]									80 to 100	80 to 100	80 to 100	0 to 80	80 to 100	80 to 100	80 to 100	80 to 100
COc1ccnc(C(=O)N[C@H]2CCC[C@H](CCOCC3CC3)[C@@H](OCC3CC3)[C@H](C)OC2=O)c1OCOC(=O)C(C)C [Compound F156]									80 to 100	80 to 100	80 to 100	80 to 100	0 to 80	0 to 80	0 to 80	0 to 80
COc1ccnc(C(=O)N[C@H]2CCC[C@H](Cc3ccccc3)[C@@H](OCC3CC3)[C@H](C)OC2=O)c1O [Compound F19]									80 to 100		80 to 100		80 to 100		80 to 100	
COc1ccnc(C(=O)N[C@H]2CCC[C@H](CCC(C)C)[C@@H](OCCCC(F)(F)F)[C@H](C)OC2=O)c1OCOC(=O)C(C)C [Compound F150]									80 to 100	80 to 100	80 to 100	0 to 80	80 to 100	80 to 100	80 to 100	80 to 100
COc1ccnc(C(=O)N[C@H]2CCC[C@H](Cc3ccc(F)cc3)[C@@H](Oc3ccccc3)[C@H](C)OC2=O)c1O [Compound F11]									80 to 100		0 to 80		80 to 100		80 to 100	
CCO[C@@H]1[C@@H](Cc2ccccc2)CCC[C@H](NC(=O)c2nccc(OC)c2OC(=O)CCOC)C(=O)O[C@H]1C [Compound F197]		80 to 100		80 to 100		80 to 100		80 to 100								
COc1ccnc(C(=O)N[C@H]2CCC[C@H](CCOc3ccccc3)[C@@H](OCC3CC3)[C@H](C)OC2=O)c1OC(C)=O [Compound F84]									80 to 100	80 to 100	80 to 100	80 to 100	80 to 100	0 to 80	80 to 100	
COc1ccnc(C(=O)N[C@H]2CCC[C@H](Cc3ccc(F)cc3)[C@@H](OCC(C)C)[C@H](C)OC2=O)c1O [Compound F14]									80 to 100		80 to 100		80 to 100		80 to 100	
COc1ccnc(C(=O)N[C@H]2CCC[C@H](Cc3ccc(F)cc3)[C@@H](OC(=O)C3CCCC3)[C@H](C)OC2=O)c1O [Compound F16]									80 to 100		0 to 80		80 to 100		0 to 80	
COc1ccnc(C(=O)N[C@H]2CCC[C@H](Cc3ccc(F)cc3)[C@@H](Oc3ccccc3)[C@H](C)OC2=O)c1OCOC(C)=O [Compound F99]									80 to 100	80 to 100	80 to 100	0 to 80	80 to 100	80 to 100	80 to 100	80 to 100
COc1ccnc(C(=O)N[C@H]2CCC[C@H](CCOCC3CC3)[C@@H](OCC3CC3)[C@H](C)OC2=O)c1OC(=O)C1CC1 [Compound F196]	80 to 100	80 to 100	80 to 100	80 to 100	80 to 100	0 to 80	0 to 80	0 to 80								
COc1ccnc(C(=O)N[C@H]2CCC[C@H](Cc3ccc(F)cc3F)[C@@H](OCCCc3ccccc3)[C@H](C)OC2=O)c1O [Compound F56]									80 to 100		0 to 80		80 to 100		0 to 80	
CCCO[C@@H]1[C@@H](CC2CCCC2)CCC[C@H](NC(=O)c2nccc(OC)c2OCOC(C)=O)C(=O)O[C@H]1C [Compound F122]									80 to 100	80 to 100	80 to 100	80 to 100	80 to 100	80 to 100	80 to 100	80 to 100
COc1ccnc(C(=O)N[C@H]2CCC[C@H](CCC(C)C)[C@@H](OC)[C@H](C)OC2=O)c1OCOC(C)=O [Compound F95]									80 to 100	80 to 100	80 to 100	0 to 80	80 to 100	80 to 100	80 to 100	0 to 80
COc1ccnc(C(=O)N[C@H]2CCC[C@H](Cc3ccccc3)[C@@H](O)[C@H](C)OC2=O)c1O [Compound F40]									80 to 100		0 to 80		0 to 80		0 to 80	
CCOCC(=O)OCOc1c(OC)ccnc1C(=O)N[C@H]1CCC[C@@H]2CCO[C@H]2[C@H](C)OC1=O [Compound F192]	80 to 100	80 to 100	80 to 100	80 to 100												
COc1ccnc(C(=O)N[C@H]2CCC[C@@H]3CCO[C@H]3[C@H](C)OC2=O)c1O [Compound F58]									80 to 100		80 to 100					
